In patent US10457702B2, “Dicaffeoyl spermidine cyclized derivatives and use thereof” (Jinan University, priority 2016, dated 2019):

What was measured:
[1] = Oxygen radical absorbance capacity (ORAC) antioxidant experiment; conditions: for ORAC value (μmol TE/μmol): relative to Trolox standard, AAPH, fluorescein
Description: The antioxidant activity of the compounds was evaluated by using the oxygen radical absorbance capacity (ORAC) experiment. The detailed experimental procedure is as follows. 0.248 g of AAPH (2,2′-azobisisobutylamidine dihydrochloride) was added to a 50 mL phosphate buffer system to formulate a 18.3 mM AAPH stock solution. 20 μL of phosphate buffer, 20 μL solution of sample to be tested or standard substance Trolox (concentration of 6.25 μM) and 20 μL of fluorescent substance of disodium fluorescein (FL, concentration of 630 nM) were added into the wells of a 96-well plate in order. Then, 140 μL of AAPH (concentration of 18.3 mM) was quickly added to the wells of a 96-well plate, which was immediately placed in a GENios […] microplate reader manufactured by Tecan, Switzerland, the excitation wavelength was set as 485 nm and the emission wavelength was set as 527 nm. The fluorescence intensity was measured every 2 minutes and recorded for a total of 100 min.
The antioxidant capacity of the active substance is calculated as follows: Relative ORAC value=(AUCsample−AUCblank)/(AUCtrolox−AUCblank). Wherein, AUCsample refers to the integral area under the fluorescence decay curve of the test sample, AUCtrolox refers to the integral area under the fluorescence decay curve of the standard substance Trolox, and AUCblank refers to the integral area under the fluorescence decay curve when the test sample or the standard substance Trolox is not added.

[2] = test system: Senile dementia fruit fly (Aβ42, P35*H29.3); assay: Learning and memory (olfactory short-term memory, T-Maze performance index) of Senile dementia fruit fly; format: in vivo; conditions: for improvement of learning and memory function of Senile dementia fruit fly (in words): 100 μM, compared with untreated disease flies and positive control drug memantine; for PI (100 μM) learning and memory performance index: Senile dementia disease flies (P35*H29.3), drug administered at 100 μM, n = 6
Text: (1) Cultivation of Senile Dementia Fruit Fly W^1118 (isoCJI), as a background fruit fly of control group in the experiment, was abbreviated as “2U”. The fruit flies that successfully introduced with the pathogenic Aβ42 protein were (UAS-Aβ42; abbreviated as “H29.3”). This strain of fruit flies was hybridized with the fruit fly expressing the Gal4 promoter in whole brain, and the fruit fly strain carrying elav-GAL4^[…] (P35) and Aβ42 was obtained. (2) Administration of Senile Dementia Fruit Fly Three groups of drug-free control of healthy fruit fly, drug-free control of disease fruit fly, and dose disease fruit fly were set in the experiment. All parents of tested fruit flies were housed and propagated at a constant temperature of 24° C. and a humidity of 42% RH (Relative humidity). On the first day after the emergence of the fruit flies, the fruit flies of control group and disease group, as well as the fruit flies to be administered were anesthetized with carbon dioxide, and the fruit flies of the correct characters were selected into the glass tube containing food. During the dosing period, all test fruit flies were kept in an incubator with a constant temperature of 28° C. and a constant humidity of 42% to ensure the drug taking efficiency of the fruit flies. Each day the fruit flies were administered for 4 hours, and the drug was administered from the second day after the fruit flies were selected until the 8th day. The drugs administered were prepared on the second day after the fruit fly selection, and were administered to the fruit flies on the day of preparation. The drugs were dissolved by 100% DMSO to a concentration of 10 mM. When preparing the working solution, the 10 mM stock solution was diluted to 100 μM with 4% sucrose. In addition, the fruit flies of control group were fed sucrose water containing 1% DMSO. For each Performance Index, two tubes of fruit fly groups are required, each tube containing about 100 fruit flies. Experiments were conducted in a light proof behavior room with constant temperature of 25 ° C., constant humidity of 70%. The method can be found in references ^[1-3]. 1) During the training stage, about 100 flies were loaded into a training tube provided with a copper mesh cross electrode. Two kinds of odors of octanol (OCT) and methylcyclohexanol (MCH) were successively introduced for each 60 s with an intervals for 45 s of fresh air. 60 V pulsed electrical shock stimulation (US, pulse duration 1.5 s, interval 3.5 s) was applied to the fruit flies while introducing the 1st odor. No electrical shock was applied when the second odor (CS-) was introduced. Thereby one training cycle was completed. 2) In the transient memory (learning) ability test, the fruit flies that completed one training cycle were immediately transferred to the selection point of T-Maze, while CS+ and CS- were introduced from the opposite two directions. After two minutes of selection, the fruit flies on both sides were collected separately and counted after anesthesia or sacrifice. […] When performing the activity test, the short-term memory deficit tests for the olfactory sensation of the non-administered healthy flies with the same genetic background (2U*H29.3), non-administered Senile dementia disease flies (P35*[…].3), and test drug administered Senile dementia disease flies were also conducted, and their total learning and memory performance indexes (PIs) was calculated respectively. […]

| Compound | ORAC value (μmol TE/μmol) [1] [μmol TE/μmol] | improvement of learning and memory function of Senile dementia fruit fly (in words) [2] | PI (100 μM) learning and memory performance index [2] | antioxidant activity (in words) ([1]; ORAC, compared with positive control EGCG) |
| --- | --- | --- | --- | --- |
| O=C(O[C@@H]1Cc2c(O)cc(O)cc2O[C@@H]1c1cc(O)c(O)c(O)c1)c1cc(O)c(O)c(O)c1 [EGCG, epigallocatechin gallate, reference compound] | 1.48 ± 0.02 | – | – | – |
| O=C1/C=C/c2ccc(O)c(c2)Oc2cc(O[C@@H]3O[C@H](CO)[C@@H](O)[C@H](O[C@@H]4O[C@H](CO)[C@@H](O)[C@H](O)[C@H]4O)[C@H]3O)c(O)cc2CCC(=O)NCCCCNCCCN1 [Formula III] | 0.96 ± 0.03 | superior to the positive control drug | 45.9 ± 1.9*** | – |
| O=C1/C=C/c2ccc(O)c(c2)Oc2cc(O[C@@H]3O[C@H](CO)[C@@H](O)[C@H](O)[C@H]3O)c(O)cc2CCC(=O)NCCCCNCCCN1 [Formula II] | 1.48 ± 0.01 | significantly improve the learning and memory function | 37.1 ± 2.2** | comparable to that of the positive control drug |
| CC12CC3CC(C)(C1)CC(N)(C3)C2 [Memantine, memantine, reference compound] | – | – | 44.2 ± 2.1*** | – |
